From patent publication US7811352B2, “Fertilizer compositions and methods of using” (priority 2005, dated 2010)

What was measured:
[1] = test system: Floratam St. Augustine grass; test: Phytotoxicity rating, St. Augustine grass (Example 9); assay type: in vivo; conditions: for Phytotoxicity - St. Augustine Grass: scale 0-5, 5=worst
Description: In this Example, the effect of a fertilizer comprising lysine on warn season turfgrass growth was examined. The effects of lysine (HCl) and LIQUID LYSINE on a common type of lawn quality turfgrass (St. Augustine grass) were compared with those of urea and Milorganite. St. Augustine grass is a commonly utilized turfgrass throughout the warm, tropical zones for lawn turf and is a commercially significant species.
Twelve fertilizer treatments comprising three concentrations of each fertilizer composition (Milorganite (N—P—K, 6-2-0), urea N—P—K, 46-0-0), LIQUID LYSINE (N—P—K, 10-2-1), and lysine (HCl) (N—P—K, 15-2-1)) were prepared and applied to 4 replications of Floratam St. Augustine grass. The lysine (HCl) was dissolved in water prior to application. Each fertilizer treatment was applied in concentrations of 0.5 lb N/1000 ft^2/month, 1.0 lb N/1000 ft^2/month and 3.0 lb N/1000 ft^2/month. The urea, LIQUID LYSINE and lysine (HCl) were applied as foliar liquids, while Milorganite was applied as a granular fertilizer. Plot size was 1 m×2 m set up as a randomized complete block. Plots were mowed at 3.0 inches before fertilizer application. Irrigation (0.15 inch) was applied following application. Plots were rated for turfgrass quality and color (scale of 1-10 where 10=dark green turf, 1=dead/brown turf; and 6=minimally acceptable turf) and phytotoxicity (scale of 0-5, where 5=worst, and 2=minimally objectionable) throughout the study period. Quality, color, and phytotoxicity were measured on 2 days before application (day −2) and day 2, day 5, day 15 and day 21 after application. All data was subject to statistical analysis and significant means were determined. Average turfgrass quality ratings for the treatments are presented in Table 6 and the quality results for application rates of 1.0 lb N/1000 ft^2/month are graphically presented in FIG. 2.

[2] = test system: Moonlight Kentucky bluegrass; test: Turfgrass quality rating, Kentucky bluegrass lawn (Example 17); assay type: in vivo
Description: In this Example, the effect of a fertilizer comprising lysine on cool season lawn variety turfgrass growth was examined. The effects of lysine (HCl) and LIQUID LYSINE on a common variety of law turfgrass (Moonlight Kentucky bluegrass) were compared with those of urea, Milorganite and a blended fertilizer (a blend of methylene urea and urea in an approximately 1:1 ratio).
Fifteen fertilizer treatments comprising three concentrations of each fertilizer composition (Milorganite N—P—K, 6-2-0), urea (N—P—K, 46-0-0), a blended fertilizer, LIQUID LYSINE (N—P—K, 10-2-1), and lysine (HCl) (N—P—K, 15-2-1)) were prepared and applied to 3 replications of newly established “Moonlight” variety Kentucky bluegrass lawn turfgrass. The urea, lysine (HCl), and LIQUID LYSINE were dissolved/suspended in 1.5 gal water prior to application. […], […], The urea, LIQUID LYSINE and lysine (HCl) were applied as foliar liquids, while Milorganite and the blended fertilizer were applied as granular fertilizers. Plot size was 4 ft×8 ft laid out in a replicated complete block design. Plots were mowed at 2.0 inches before fertilizer application and mowed two times per week to 2.0 inch height. Grass clippings were not removed from the plots and no supplemental cultural maintenance or pest management was applied. Irrigation (0.15 inch) was applied following application and thereafter only when necessary to insure survival of the turf. Plots were rated for turfgrass quality (scale of 1-9 where 9=dark green turf, 1=dead/brown turf, and 6=minimally acceptable turf) and phytotoxic injury (scale of 0-9 where 9=significant foliar injury and 2=minimally objectionable foliar injury) throughout the study period. Quality was measured prior to application (day 0) and day 37, day 70 and day 95 after application. Injury was measured on day 37 and day 70 after application. In addition, blade density of the grass was measured on day 70 after application (scale of 1-9, where 9=very dense turf, 1=low density turf). All data was subject to statistical analysis and significant means were determined.

[3] = Monthly Rate 0.5 lbs N/1000 ft^2, Day 2
[4] = Monthly Rate 0.5 lbs N/1000 ft^2, Day 5
[5] = Monthly Rate 0.5 lbs N/1000 ft^2, Day 15
[6] = Monthly Rate 0.5 lbs N/1000 ft^2, Day 21
[7] = Monthly Rate 0.5 lbs N/1000 ft^2, Day −2 (before application)
[8] = Monthly Rate 1.0 lbs N/1000 ft^2, Day 2
[9] = Monthly Rate 1.0 lbs N/1000 ft^2, Day 5
[10] = Monthly Rate 1.0 lbs N/1000 ft^2, Day 15
[11] = Monthly Rate 1.0 lbs N/1000 ft^2, Day 21
[12] = Monthly Rate 1.0 lbs N/1000 ft^2, Day −2 (before application)
[13] = Monthly Rate 3.0 lbs N/1000 ft^2, Day 2
[14] = Monthly Rate 3.0 lbs N/1000 ft^2, Day 5
[15] = Monthly Rate 3.0 lbs N/1000 ft^2, Day 15
[16] = Monthly Rate 3.0 lbs N/1000 ft^2, Day 21
[17] = Monthly Rate 3.0 lbs N/1000 ft^2, Day −2 (before application)
[18] = Weekly Rate 0.5 lbs N/1000 ft^2, Day 0
[19] = Weekly Rate 0.5 lbs N/1000 ft^2, Day 37
[20] = Weekly Rate 0.5 lbs N/1000 ft^2, Day 70
[21] = Weekly Rate 0.5 lbs N/1000 ft^2, Day 95
[22] = Weekly Rate 1.0 lbs N/1000 ft^2, Day 0
[23] = Weekly Rate 1.0 lbs N/1000 ft^2, Day 37
[24] = Weekly Rate 1.0 lbs N/1000 ft^2, Day 70
[25] = Weekly Rate 1.0 lbs N/1000 ft^2, Day 95
[26] = Weekly Rate 3.0 lbs N/1000 ft^2, Day 0
[27] = Weekly Rate 3.0 lbs N/1000 ft^2, Day 37
[28] = Weekly Rate 3.0 lbs N/1000 ft^2, Day 70
[29] = Weekly Rate 3.0 lbs N/1000 ft^2, Day 95

Compound | Phytotoxicity - St. Augustine Grass [1, 3] | Phytotoxicity - St. Augustine Grass [1, 4] | Phytotoxicity - St. Augustine Grass [1, 5] | Phytotoxicity - St. Augustine Grass [1, 6] | Phytotoxicity - St. Augustine Grass [1, 7] | Phytotoxicity - St. Augustine Grass [1, 8] | Phytotoxicity - St. Augustine Grass [1, 9] | Phytotoxicity - St. Augustine Grass [1, 10] | Phytotoxicity - St. Augustine Grass [1, 11] | Phytotoxicity - St. Augustine Grass [1, 12] | Phytotoxicity - St. Augustine Grass [1, 13] | Phytotoxicity - St. Augustine Grass [1, 14] | Phytotoxicity - St. Augustine Grass [1, 15] | Phytotoxicity - St. Augustine Grass [1, 16] | Phytotoxicity - St. Augustine Grass [1, 17] | Quality Rating - Kentucky Bluegrass [2, 18] | Quality Rating - Kentucky Bluegrass [2, 19] [b] | Quality Rating - Kentucky Bluegrass [2, 20] [cd] | Quality Rating - Kentucky Bluegrass [2, 21] [ab] | Quality Rating - Kentucky Bluegrass [2, 22] | other results
Cl.NCCCC[C@H](N)C(=O)O [Lys (HCl) 15% N, L-lysine monohydrochloride] | 0.0c | 0.4cd | 0 | 0 | 0 | 0.0c | 1.1bcd | 0 | 0 | 0 | 0.4bc | 1.1bcd | 0 | 0 | 0 | 5.0cde | 5.3 | 4.3 | 5.7 | 5.3bcd | Quality Rating - Kentucky Bluegrass [2, 23]: 7.3a; Quality Rating - Kentucky Bluegrass [2, 24]: 6.0ab; Quality Rating - Kentucky Bluegrass [2, 25]: 6.0a; Quality Rating - Kentucky Bluegrass [2, 26]: 6.3ab; Quality Rating - Kentucky Bluegrass [2, 27]: 8.0a; Quality Rating - Kentucky Bluegrass [2, 28]: 6.7a; Quality Rating - Kentucky Bluegrass [2, 29]: 5.7ab
NC(N)=O [Urea, urea, reference compound] | 0.6bc | 1.6bc | 0 | 0 | 0 | 1.5b | 2.0ab | 0 | 0 | 0 | 2.8a | 3.0a | 0 | 0 | 0 | 4.7de | 6.0 | 4.3 | 4.3 | 5.0cde | phytotoxicity ([1]; 1.0 lb N/1000 ft^2 and 3.0 lb N/1000 ft^2 application rate): some phytotoxicity; Quality Rating - Kentucky Bluegrass [2, 23]: 7.7a; Quality Rating - Kentucky Bluegrass [2, 24]: 5.3bc; Quality Rating - Kentucky Bluegrass [2, 25]: 6.3a; Quality Rating - Kentucky Bluegrass [2, 26]: 6.3ab; Quality Rating - Kentucky Bluegrass [2, 27]: 8.0a; Quality Rating - Kentucky Bluegrass [2, 28]: 6.7a; Quality Rating - Kentucky Bluegrass [2, 29]: 4.3ab
